Results published in patent US20090012103A1, “SUBSTITUTED HETEROCYCLIC COMPOUNDS” (priority 2007, published 2009).

Legend:
[1] = molecular target: T1, wild-type human cardiac sodium channel, hNav1.5 (Homo sapiens, UniProt Q14524); experiment: Peak INa screening assay (tonic block TB and use-dependent block UDB of peak sodium current); type: cell-based; settings: compound at 10 μM
[2] = molecular target: T1, wild-type human cardiac sodium channel, hNav1.5; experiment: Late INa screening assay (late sodium current, PatchXpress whole cell patch clamp); type: cell-based; settings: read-out: Late INa % blk
[3] = molecular target: hERG potassium channel (Homo sapiens, UniProt Q12809); experiment: hERG screening assay (PatchXpress patch clamp, CHO cell line)
hERG potassium channel, sequence (Q12809 whole entry): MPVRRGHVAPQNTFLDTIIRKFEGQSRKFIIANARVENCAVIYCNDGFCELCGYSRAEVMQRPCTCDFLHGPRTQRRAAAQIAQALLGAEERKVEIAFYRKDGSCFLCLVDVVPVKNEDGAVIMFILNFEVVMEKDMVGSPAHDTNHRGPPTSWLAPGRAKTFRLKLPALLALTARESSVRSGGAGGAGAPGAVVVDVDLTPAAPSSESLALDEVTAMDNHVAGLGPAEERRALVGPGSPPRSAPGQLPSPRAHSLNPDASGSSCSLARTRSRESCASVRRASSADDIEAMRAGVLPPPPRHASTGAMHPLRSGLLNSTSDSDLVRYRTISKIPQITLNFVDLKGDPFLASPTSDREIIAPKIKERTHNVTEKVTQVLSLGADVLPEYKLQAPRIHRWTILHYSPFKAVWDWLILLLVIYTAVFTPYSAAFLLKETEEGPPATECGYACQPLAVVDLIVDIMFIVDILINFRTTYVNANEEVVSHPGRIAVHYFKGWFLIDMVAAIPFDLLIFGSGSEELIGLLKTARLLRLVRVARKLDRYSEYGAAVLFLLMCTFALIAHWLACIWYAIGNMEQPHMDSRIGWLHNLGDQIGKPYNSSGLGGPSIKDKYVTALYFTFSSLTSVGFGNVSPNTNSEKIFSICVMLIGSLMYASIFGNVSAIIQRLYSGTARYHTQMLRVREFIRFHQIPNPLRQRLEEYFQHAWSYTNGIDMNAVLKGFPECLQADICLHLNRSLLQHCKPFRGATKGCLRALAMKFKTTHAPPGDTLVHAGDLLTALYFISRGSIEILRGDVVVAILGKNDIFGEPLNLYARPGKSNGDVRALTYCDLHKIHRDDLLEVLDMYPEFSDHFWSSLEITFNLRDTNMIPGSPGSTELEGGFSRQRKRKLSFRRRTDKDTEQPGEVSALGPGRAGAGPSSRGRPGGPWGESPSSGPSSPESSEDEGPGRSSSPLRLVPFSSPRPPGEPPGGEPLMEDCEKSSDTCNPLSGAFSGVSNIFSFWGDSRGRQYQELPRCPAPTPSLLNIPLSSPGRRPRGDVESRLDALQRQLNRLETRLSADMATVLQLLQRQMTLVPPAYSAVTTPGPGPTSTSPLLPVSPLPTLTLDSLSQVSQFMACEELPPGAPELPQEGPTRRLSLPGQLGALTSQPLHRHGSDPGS
Description: Compounds were screened to test their activity in blocking the hERG potassium channel. The hERG channel is heterologously expressed in a CHO (Chinese Hamster Ovary) cell line. Cells are maintained with standard tissue culture procedures and stable channel expression is maintained with 500 μg/ml G418 in the culture medium. Cells are harvested for testing on the PatchXpress automated patch clamp with Accumax (Innovative Cell Technologies, San Diego, Calif.) to isolate single cells.
The following solutions are used for electrophysiological recordings. The external solution contains: 2 mM CaCl2; 2 mM MgCl2; 4 mM KCl; 150 mM NaCl; 10 mM Glucose; 10 mM HEPES (pH 7.4 with 1M NaOH, osmolarity).
hERG channels are activated when the voltage is stepped to +20 mV from the −80 mV holding potential (see FIG. 3). During a 5 second step at +20 mV, the channels activate and then largely inactivate, so the currents are relatively small. Upon returning to −50 mV from +20 mV, hERG currents transiently become much larger as inactivation is rapidly removed and then the channel closes. The first step to −50 mV for 300 ms is used as a baseline for measuring the peak amplitude during the step to −50 mV after channel activation. The peak current at −50 mV is measured both under control conditions and after addition of compound.
All compounds are prepared as 10 mM DMSO stocks in glass vials. Stock solutions are mixed by vigorous vortexing and sonication for about 2 minutes at room temperature. For testing, compounds are diluted in glass vials using an intermediate dilution step in pure DMSO and then further diluted to working concentrations in external solution. Dilutions are prepared no longer than 20 minutes before use.
After achieving the whole-cell configuration, cells are monitored for 90 seconds to assess stability and washed with external solution for 66 seconds. The voltage protocol described above is then applied to the cells every 12 seconds and throughout the whole procedure. Only cells with stable recording parameters and meeting specified health criteria are allowed to enter the compound addition procedure.
External solution containing 0.1% DMSO (vehicle) is applied to the cells first to establish the control peak current amplitude. After allowing the current to stabilize for 3 to 5 minutes, 1 μM and then 10 μM test compounds are applied. Each compound concentration is added 4 times and cells are kept in test solution until the effect of the compound reaches steady state or for a maximum of 12 minutes. […] Washout in the external solution compartment is performed until the recovery of the current reaches steady state. Data are analyzed using DataXpress, Clampfit (Molecular Devices, Inc., Sunnyvale) and Origin 7 (Originlab Corp.)

[4] = tonic block, read-out: Tonic Peak INa % blk
[5] = use-dependent block, read-out: UDB Peak INa % blk

T1 sequence (Q14524 whole entry): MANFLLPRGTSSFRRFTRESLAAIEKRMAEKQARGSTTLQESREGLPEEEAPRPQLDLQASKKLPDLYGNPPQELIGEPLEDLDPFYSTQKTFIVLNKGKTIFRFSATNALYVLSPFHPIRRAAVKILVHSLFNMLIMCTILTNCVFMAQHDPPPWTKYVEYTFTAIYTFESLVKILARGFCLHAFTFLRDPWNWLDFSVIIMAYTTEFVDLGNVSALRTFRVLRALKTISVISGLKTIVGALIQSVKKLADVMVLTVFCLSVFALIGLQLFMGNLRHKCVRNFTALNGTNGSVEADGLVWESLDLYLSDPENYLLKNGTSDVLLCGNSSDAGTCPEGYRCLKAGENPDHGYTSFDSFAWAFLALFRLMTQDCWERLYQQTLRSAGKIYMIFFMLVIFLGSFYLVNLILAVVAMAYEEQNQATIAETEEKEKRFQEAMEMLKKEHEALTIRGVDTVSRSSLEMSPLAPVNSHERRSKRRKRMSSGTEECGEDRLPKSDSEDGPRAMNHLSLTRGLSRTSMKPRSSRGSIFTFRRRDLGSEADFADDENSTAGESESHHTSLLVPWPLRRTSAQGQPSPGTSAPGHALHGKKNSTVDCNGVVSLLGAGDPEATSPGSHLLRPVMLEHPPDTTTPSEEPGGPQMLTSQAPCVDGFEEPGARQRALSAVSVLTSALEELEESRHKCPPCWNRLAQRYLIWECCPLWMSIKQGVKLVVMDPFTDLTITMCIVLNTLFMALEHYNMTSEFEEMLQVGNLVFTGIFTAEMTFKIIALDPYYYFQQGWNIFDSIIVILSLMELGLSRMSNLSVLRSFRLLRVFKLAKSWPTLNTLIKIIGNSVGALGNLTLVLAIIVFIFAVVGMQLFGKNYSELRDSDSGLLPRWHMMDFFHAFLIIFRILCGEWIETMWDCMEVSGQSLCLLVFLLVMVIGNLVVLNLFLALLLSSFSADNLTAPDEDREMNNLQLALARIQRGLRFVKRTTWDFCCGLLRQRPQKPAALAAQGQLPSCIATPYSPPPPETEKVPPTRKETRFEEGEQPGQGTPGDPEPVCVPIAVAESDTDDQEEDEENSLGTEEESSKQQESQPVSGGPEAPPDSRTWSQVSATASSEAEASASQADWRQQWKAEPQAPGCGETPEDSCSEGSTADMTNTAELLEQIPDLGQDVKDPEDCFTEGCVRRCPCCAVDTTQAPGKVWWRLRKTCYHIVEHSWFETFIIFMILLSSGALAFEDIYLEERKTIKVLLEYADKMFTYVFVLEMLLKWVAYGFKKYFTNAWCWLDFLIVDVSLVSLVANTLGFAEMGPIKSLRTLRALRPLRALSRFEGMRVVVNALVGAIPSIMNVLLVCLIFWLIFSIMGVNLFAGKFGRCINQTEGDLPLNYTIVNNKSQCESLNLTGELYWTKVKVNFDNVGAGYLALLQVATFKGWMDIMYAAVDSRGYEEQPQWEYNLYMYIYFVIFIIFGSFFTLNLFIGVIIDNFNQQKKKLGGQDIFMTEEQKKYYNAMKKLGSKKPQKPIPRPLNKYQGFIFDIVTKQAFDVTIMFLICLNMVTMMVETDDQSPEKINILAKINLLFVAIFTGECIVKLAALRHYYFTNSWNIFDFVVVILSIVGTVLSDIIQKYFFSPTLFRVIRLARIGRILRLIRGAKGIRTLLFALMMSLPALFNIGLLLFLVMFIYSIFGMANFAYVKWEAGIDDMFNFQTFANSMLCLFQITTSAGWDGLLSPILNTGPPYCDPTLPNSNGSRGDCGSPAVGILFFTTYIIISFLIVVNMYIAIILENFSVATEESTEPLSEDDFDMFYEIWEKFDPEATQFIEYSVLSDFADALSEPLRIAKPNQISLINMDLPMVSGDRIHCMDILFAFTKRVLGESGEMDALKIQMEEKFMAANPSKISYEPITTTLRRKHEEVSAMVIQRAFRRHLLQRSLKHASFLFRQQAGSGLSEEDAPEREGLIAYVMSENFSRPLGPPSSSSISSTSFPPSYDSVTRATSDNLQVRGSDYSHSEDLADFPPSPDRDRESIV

Row | Compound | inhibition at 10 µM [1, 4] | inhibition at 10 µM ([2]; compound at 10 μM) | hERG Patch Clamp hERG % blk ([3]; 1 μM) | hERG Patch Clamp hERG % blk ([3]; 10 μM) | inhibition at 10 µM [2] | inhibition at 10 µM [1, 5]
1 | CCOC(=O)C1=C(C)NC2=C(C(=O)CCC2)C1c1ccco1 (centres unmarked) [PT-153, ethyl 4-(furan-2-yl)-2-methyl-5-oxo-1,4,5,6,7,8-hexahydroquinoline-3-carboxylate] | 1.7% | -5% | 10.5% | 13.5% |  | 
2 | CC1=C(C(=O)OC(C)C)C(c2ccc3ccccc3c2)C2=C(CCCC2=O)N1 (centres unmarked) [PT-157, isopropyl 2-methyl-4-(naphthalen-2-yl)-5-oxo-1,4,5,6,7,8-hexahydroquinoline-3-carboxylate] | 15.3% | 62.3% | 16.0% | 37.1% |  | 
3 | CC1=C(C(=O)N2CCC(c3ccc(C(=O)O)cc3)CC2)C(c2cccc3ccccc23)C2=C(CCCC2=O)N1 (centres unmarked) [PT-173, 4-(1-(2-methyl-4-(naphthalen-1-yl)-5-oxo-1,4,5,6,7,8-hexahydroquinoline-3-carbonyl)piperidin-4-yl)benzoic acid] | 0% | 52.6% | 12.0% | 37.0% |  | 
4 | CCOC(=O)C1=C(CC)NC(CC)=C(C(=O)OCC)C1c1ccc(Br)s1 [PT-181, diethyl 4-(5-bromothiophen-2-yl)-2,6-diethyl-1,4-dihydropyridine-3,5-dicarboxylate] | 76.5% | 91.7% | 10.5% | 73.0% |  | 
5 | CCOC(=O)C1=C(C)N(C)C(C)=C(C(=O)OCC)C1c1cccc2ccccc12 [PT-191, diethyl 1,2,6-trimethyl-4-(naphthalen-1-yl)-1,4-dihydropyridine-3,5-dicarboxylate] | 0% | 63.2% | 26.5% | 68.0% |  | 
6 | CCOC(=O)C1=C(C)Nc2nnnn2C1c1cccc2ccccc12 (centres unmarked) [PT-192, ethyl 5-methyl-7-(naphthalen-1-yl)-4,7-dihydrotetrazolo[1,5-a]pyrimidine-6-carboxylate] | 0% |  | 23.0% | 29.0% | 52.3% | 
7 | CCOC(=O)C1=C(C)Nc2nc(C#N)c(C#N)n2C1c1cccc2ccccc12 (centres unmarked) [PT-194, ethyl 2,3-dicyano-7-methyl-5-(naphthalen-1-yl)-5,8-dihydroimidazo[1,2-a]pyrimidine-6-carboxylate] | 19.1% | 76.1% | 25.0% | 91.0% |  | 
8 | CC1=C(C(=O)OCc2ccccc2)C(c2cccc3ccccc23)n2nnnc2N1C (centres unmarked) [PT-195, benzyl 4,5-dimethyl-7-(naphthalen-1-yl)-4,7-dihydrotetrazolo[1,5-a]pyrimidine-6-carboxylate] | 1.7% | 52.7% | 12.5% | 49.0% |  | 
9 | CC1=C(C(=O)OCc2ccccc2)[C@@H](c2ccccc2-c2ccc(C)o2)n2nnnc2N1 [PT-235, (R)-benzyl 5-methyl-7-(2-(5-methylfuran-2-yl)phenyl)-4,7-dihydrotetrazolo[1,5-a]pyrimidine-6-carboxylate] | 28.1% | 71.4% | 10.0% | 41.5% |  | 
10 | CC1=C(C(=O)OCc2ccccc2)C(c2c(-c3ccc(C(=O)O)cc3)sc3ccccc23)n2nnnc2N1 (centres unmarked) [PT-294, 4-(3-(6-(benzyloxycarbonyl)-5-methyl-4,7-dihydrotetrazolo[1,5-a]pyrimidin-7-yl)benzo[b]thiophen-2-yl)benzoic acid] | 24.4% | 67.2% | 12.5% | 15.5% |  | 
11 | COc1cc(Cl)ccc1COC(=O)C1=C(C)Nc2nnnn2C1c1c(Cl)cccc1Cl (centres unmarked) [PT-306, 4-chloro-2-methoxybenzyl 7-(2,6-dichlorophenyl)-5-methyl-4,7-dihydrotetrazolo[1,5-a]pyrimidine-6-carboxylate] | 20.1% | 70.4% | 10.0% | 48.5% |  | 9%
12 | COc1cc(Cl)ccc1COC(=O)C1=C(C)Nc2nnnn2C1c1c(C)cccc1C (centres unmarked) [PT-307, 4-chloro-2-methoxybenzyl 7-(2,6-dimethylphenyl)-5-methyl-4,7-dihydrotetrazolo[1,5-a]pyrimidine-6-carboxylate] | 14% | 84.9% | 10.0% | 62.5% |  | 16.6%
13 | C=CCOC(=O)C1=C(C)Nc2nnnn2C1c1cccc2ccccc12 (centres unmarked) [PT-319, allyl 5-methyl-7-(naphthalen-1-yl)-4,7-dihydrotetrazolo[1,5-a]pyrimidine-6-carboxylate] | 4.5% | 55.7% | 10.0% | 41.0% |  | 
14 | CC1=C(C(=O)OCc2ccccc2)C(c2ccc3ccccc3c2)c2c(C)n[nH]c2N1 (centres unmarked) [PT-325, benzyl 3,6-dimethyl-4-(naphthalen-2-yl)-4,7-dihydro-1H-pyrazolo[3,4-b]pyridine-5-carboxylate] | 19.9% | 53.8% | 10.0% | 36.0% |  | 24.3%
15 | CC1=C(C(=O)OCc2ccccc2)C(c2ccccc2N2CCN(S(C)(=O)=O)CC2)n2nnnc2N1 (centres unmarked) [PT-339, benzyl 5-methyl-7-(2-(4-(methylsulfonyl)piperazin-1-yl)phenyl)-4,7-dihydrotetrazolo[1,5-a]pyrimidine-6-carboxylate] | 22.2% | 51.4% | 11.5% | 43.5% |  | 9%
16 | CC1=C(C(=O)OCc2ccccc2)C(c2ccccc2N2CCN(C)CC2)n2nnnc2N1 (centres unmarked) [PT-340, benzyl 5-methyl-7-(2-(4-methylpiperazin-1-yl)phenyl)-4,7-dihydrotetrazolo[1,5-a]pyrimidine-6-carboxylate] | 89.1% | 71.9% | 57.0% | 93.5% |  | 
17 | CC1=C(C(=O)OCc2ccccc2)C(c2ccccc2-c2cccc(NS(C)(=O)=O)c2)n2nnnc2N1 (centres unmarked) [PT-348, benzyl 5-methyl-7-(3′-(methylsulfonamido)biphenyl-2-yl)-4,7-dihydrotetrazolo[1,5-a]pyrimidine-6-carboxylate] | 17.2% | 71.6% | 10.0% | 38.5% |  | 
18 | CC1=C(C(=O)OCc2ccccc2)C(c2nccs2)c2cn[nH]c2N1 (centres unmarked) [PT-369, benzyl 6-methyl-4-(thiazol-2-yl)-4,7-dihydro-1H-pyrazolo[3,4-b]pyridine-5-carboxylate] | 26.3% | 47.3% | 10.0% | 25.0% |  | 13.5%
19 | COc1ccc(C2C(C(=O)OCc3ccccc3)=C(C)Nc3nnnn32)c(C#N)c1 (centres unmarked) [PT-389, benzyl 7-(2-cyano-4-methoxyphenyl)-5-methyl-4,7-dihydrotetrazolo[1,5-a]pyrimidine-6-carboxylate] | -1.6% | 49.7% | 23.5% | 69.0% |  | 
20 | CCOC(=O)C1=C(C)NC(C)=C(C(=O)OCC)C1c1ccccc1Br [PT-430, diethyl 4-(2-bromophenyl)-2,6-dimethyl-1,4-dihydropyridine-3,5-dicarboxylate] | 91% | 95.3% | 10.0% | 21.5% |  | 55.6%
21 | CCOC(=O)C1=C(C)Nc2[nH]ncc2C1c1ccc(OC)cc1OCc1ccccc1 (centres unmarked) [PT-445, ethyl 4-(2-(benzyloxy)-4-methoxyphenyl)-6-methyl-4,7-dihydro-1H-pyrazolo[3,4-b]pyridine-5-carboxylate] | 49.6% | 62.2% | 10.5% | 50.0% |  | 31.6%
22 | CCOC(=O)C1=C(C)Nc2nnnn2C1c1cccc(Oc2ccccc2)c1 (centres unmarked) [PT-464, ethyl 5-methyl-7-(3-phenoxyphenyl)-4,7-dihydrotetrazolo[1,5-a]pyrimidine-6-carboxylate] | 2.7% | 55.8% | 11.0% | 55.0% |  | 
